Patent US12371428B2 (Exelixis, Inc., priority 2019, dated 2025)
Where two headings read alike, the source gives them in different places.

Key:
[1] = biological target: Human MET (residues 956-1390) (Homo sapiens (Human), UniProt P08581); experiment: Human Met kinase assay, HTRF KinEase (Example D-2); format: biochemical; settings: read-out: c-Met IC50
Procedure, shortened: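 IC50 values come from a 4-parameter logistic fit of the […] fluorescence ratio, set between DMSO (100%) and reference compound at 1 μM (0%). Reactions held MET 956-1390 at 0.1 ng/well, ATP at Km, biotinylated peptide, 5 mM MgCl2, 1 mM MnCl2, 1 mM DTT and 3% DMSO, and ran 40 min at room temperature before streptavidin-XL665/Eu-antibody detection.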

[2] = biological target: Met (phospho-Met, HGF-stimulated PC-3 prostate cancer cells) (Homo sapiens (Human), UniProt P08581); experiment: Met autophosphorylation ELISA in PC-3 cells (Example F); format: cell-based; settings: cellular activity; Met autophosphorylation ELISA in PC-3 cells; read-out: c-Met IC50
Met (phospho-Met, HGF-stimulated PC-3 prostate cancer cells), sequence (P08581 25-1390): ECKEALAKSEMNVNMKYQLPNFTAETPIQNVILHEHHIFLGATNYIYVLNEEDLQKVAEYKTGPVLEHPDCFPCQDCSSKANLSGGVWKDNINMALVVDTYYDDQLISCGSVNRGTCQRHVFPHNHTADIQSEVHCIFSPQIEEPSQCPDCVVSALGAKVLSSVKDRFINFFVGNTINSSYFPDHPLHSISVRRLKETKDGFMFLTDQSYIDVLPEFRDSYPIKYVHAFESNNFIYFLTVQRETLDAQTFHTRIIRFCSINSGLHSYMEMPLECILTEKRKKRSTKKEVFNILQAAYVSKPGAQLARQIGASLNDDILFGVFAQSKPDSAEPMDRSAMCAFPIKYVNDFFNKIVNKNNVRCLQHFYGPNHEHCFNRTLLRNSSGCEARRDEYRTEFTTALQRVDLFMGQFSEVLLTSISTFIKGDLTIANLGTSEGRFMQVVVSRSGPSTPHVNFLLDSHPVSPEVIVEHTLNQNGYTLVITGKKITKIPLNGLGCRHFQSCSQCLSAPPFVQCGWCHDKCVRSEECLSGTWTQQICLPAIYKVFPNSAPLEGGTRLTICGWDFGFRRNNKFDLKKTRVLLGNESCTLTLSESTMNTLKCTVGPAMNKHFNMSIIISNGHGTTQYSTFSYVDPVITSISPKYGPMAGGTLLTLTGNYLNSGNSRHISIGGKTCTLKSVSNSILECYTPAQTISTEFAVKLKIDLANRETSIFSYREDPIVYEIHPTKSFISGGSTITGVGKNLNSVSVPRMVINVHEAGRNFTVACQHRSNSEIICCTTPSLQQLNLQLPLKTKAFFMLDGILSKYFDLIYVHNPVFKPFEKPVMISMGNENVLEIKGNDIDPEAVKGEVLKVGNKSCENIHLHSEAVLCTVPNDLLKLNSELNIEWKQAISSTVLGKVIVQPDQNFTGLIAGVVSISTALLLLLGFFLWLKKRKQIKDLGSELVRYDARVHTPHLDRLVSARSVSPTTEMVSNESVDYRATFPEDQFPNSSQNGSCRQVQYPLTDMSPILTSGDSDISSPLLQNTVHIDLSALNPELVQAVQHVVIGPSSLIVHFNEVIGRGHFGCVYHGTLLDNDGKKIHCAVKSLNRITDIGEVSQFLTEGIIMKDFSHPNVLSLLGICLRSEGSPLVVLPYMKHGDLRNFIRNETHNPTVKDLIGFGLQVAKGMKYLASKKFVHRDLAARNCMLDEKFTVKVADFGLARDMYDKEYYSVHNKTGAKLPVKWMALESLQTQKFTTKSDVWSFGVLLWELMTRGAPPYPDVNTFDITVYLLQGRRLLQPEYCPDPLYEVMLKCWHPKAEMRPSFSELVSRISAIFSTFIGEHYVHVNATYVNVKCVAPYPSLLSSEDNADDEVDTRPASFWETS
Procedure, shortened: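 IC50 values derive from a 4-parameter logistic fit of phospho-Met (panTyr) sandwich ELISA signals in PC-3 lysates, scaled between DMSO and reference-inhibitor wells. Cells, starved 3 h in serum-free medium, had 1 h compound exposure (8 doses, 0.3% DMSO) before 10 min stimulation with 100 ng/mL HGF.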

[3] = biological target: KDR (phospho-KDR, VEGF165-stimulated HUVEC cells) (Homo sapiens (Human), UniProt P35968); experiment: KDR autophosphorylation ELISA in HUVEC cells (Example G); format: cell-based; settings: cellular activity; KDR autophosphorylation ELISA in HUVEC cells
KDR (phospho-KDR, VEGF165-stimulated HUVEC cells), sequence (P35968 20-1356): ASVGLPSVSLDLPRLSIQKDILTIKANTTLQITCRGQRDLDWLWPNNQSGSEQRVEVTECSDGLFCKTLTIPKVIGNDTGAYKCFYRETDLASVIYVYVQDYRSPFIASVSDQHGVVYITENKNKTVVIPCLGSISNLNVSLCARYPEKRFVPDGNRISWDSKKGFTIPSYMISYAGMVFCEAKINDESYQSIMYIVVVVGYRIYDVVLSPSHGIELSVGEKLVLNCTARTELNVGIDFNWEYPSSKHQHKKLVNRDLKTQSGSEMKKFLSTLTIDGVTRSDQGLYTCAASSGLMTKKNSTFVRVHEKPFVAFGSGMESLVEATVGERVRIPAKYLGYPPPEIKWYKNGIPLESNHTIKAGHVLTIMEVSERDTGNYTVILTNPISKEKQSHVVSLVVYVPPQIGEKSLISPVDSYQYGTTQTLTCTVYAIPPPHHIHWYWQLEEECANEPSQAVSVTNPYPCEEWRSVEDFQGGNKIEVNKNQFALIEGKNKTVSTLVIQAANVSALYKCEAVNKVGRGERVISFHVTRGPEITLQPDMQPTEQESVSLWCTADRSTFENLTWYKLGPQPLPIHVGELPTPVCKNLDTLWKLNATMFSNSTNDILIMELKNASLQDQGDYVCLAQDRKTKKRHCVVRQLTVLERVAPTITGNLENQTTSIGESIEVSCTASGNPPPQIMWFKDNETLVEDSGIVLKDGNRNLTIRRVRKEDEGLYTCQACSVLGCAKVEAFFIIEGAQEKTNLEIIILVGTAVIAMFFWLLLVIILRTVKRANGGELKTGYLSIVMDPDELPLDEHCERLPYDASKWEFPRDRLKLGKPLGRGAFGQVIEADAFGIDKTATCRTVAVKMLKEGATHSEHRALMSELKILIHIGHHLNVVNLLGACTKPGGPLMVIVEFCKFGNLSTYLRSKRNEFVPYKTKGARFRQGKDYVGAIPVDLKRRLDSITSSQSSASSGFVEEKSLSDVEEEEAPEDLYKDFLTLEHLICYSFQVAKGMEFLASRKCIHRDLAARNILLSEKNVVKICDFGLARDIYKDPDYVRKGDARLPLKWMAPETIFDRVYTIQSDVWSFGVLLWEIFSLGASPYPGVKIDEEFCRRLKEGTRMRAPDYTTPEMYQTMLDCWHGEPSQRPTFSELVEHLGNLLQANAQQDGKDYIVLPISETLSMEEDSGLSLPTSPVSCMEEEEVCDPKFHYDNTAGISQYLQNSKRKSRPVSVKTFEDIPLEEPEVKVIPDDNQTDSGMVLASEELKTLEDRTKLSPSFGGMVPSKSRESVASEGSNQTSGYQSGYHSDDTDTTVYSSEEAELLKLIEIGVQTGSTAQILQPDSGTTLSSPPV
Procedure, shortened: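 HUVEC cells, serum-starved 24 h, were treated 1 h with an 8-point compound dilution (0.3% DMSO) and then stimulated with 100 ng/mL VEGF165 for 5 min. Phospho-KDR in lysates was quantified by sandwich ELISA against a phospho-KDR standard. IC50 from a 4-parameter logistic fit, normalised between stimulated DMSO and unstimulated controls.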

[4] = biological target: Human MER (residues 528-999) (Homo sapiens (Human), UniProt Q12866); experiment: Human Mer kinase assay, HTRF KinEase (Example C-2); format: biochemical
Human MER (residues 528-999), sequence (Q12866 528-999): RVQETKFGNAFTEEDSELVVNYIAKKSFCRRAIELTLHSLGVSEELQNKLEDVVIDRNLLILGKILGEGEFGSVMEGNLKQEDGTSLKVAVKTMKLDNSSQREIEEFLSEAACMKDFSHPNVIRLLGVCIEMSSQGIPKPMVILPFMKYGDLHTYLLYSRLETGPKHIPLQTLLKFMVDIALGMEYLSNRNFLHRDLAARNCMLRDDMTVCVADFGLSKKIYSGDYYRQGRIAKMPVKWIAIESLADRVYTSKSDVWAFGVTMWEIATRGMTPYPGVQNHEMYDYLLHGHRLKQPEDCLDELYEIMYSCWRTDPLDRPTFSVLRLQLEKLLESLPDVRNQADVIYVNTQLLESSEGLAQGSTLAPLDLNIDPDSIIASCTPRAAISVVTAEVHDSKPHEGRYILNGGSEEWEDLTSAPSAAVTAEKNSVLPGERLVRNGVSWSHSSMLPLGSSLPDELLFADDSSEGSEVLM
Procedure, shortened: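 IC50 values from 10 concentrations via 4-parameter logistic fit of […], with DMSO as 100% and 1 μM reference compound as 0% activity. Reaction: MER kinase domain 528-999, 1 ng/well, 40 μM ATP (Km), biotin peptide, 5 mM MgCl2, 1 mM DTT, 3% DMSO, room temperature 60 min; HTRF streptavidin-XL665/Eu-antibody detection.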

[5] = biological target: Human KDR (residues 790-1356) (Homo sapiens (Human), UniProt P35968); experiment: Human KDR kinase assay, HTRF KinEase (Example B-2); format: biochemical
Human KDR (residues 790-1356), sequence (P35968 790-1356): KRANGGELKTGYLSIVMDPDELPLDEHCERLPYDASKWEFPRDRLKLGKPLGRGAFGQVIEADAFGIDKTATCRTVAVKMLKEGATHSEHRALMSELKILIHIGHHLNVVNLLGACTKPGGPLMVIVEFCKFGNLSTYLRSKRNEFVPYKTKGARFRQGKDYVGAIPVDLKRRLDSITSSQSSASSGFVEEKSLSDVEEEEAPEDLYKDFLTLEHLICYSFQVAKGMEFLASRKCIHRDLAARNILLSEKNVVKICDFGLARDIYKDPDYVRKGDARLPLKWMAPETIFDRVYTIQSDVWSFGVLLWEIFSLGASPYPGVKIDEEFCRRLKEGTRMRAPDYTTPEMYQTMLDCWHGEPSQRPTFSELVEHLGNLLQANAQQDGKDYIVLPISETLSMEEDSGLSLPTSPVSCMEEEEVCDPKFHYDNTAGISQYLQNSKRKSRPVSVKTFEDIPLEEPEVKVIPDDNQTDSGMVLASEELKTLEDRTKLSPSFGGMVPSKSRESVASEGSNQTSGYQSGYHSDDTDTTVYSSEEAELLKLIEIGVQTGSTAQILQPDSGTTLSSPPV
Procedure, shortened: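 Human KDR residues 790-1356 (0.1 ng/well) in buffer with 5 mM MgCl2, 1 mM MnCl2, 1 mM DTT, biotinylated peptide substrate, ATP at Km (4.0 μM), 3% DMSO, 10 compound concentrations; 40 min, room temperature. EDTA stop, streptavidin-XL665/Eu-TK antibody HTRF read 665/620 nm; 4-parameter IC50.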

[6] = protocol of Example D-2 (other compounds)
[7] = protocol of Example C-2 (other compounds)
[8] = protocol of Example B-2 (other compounds)

Human MET (residues 956-1390), sequence (P08581 956-1390): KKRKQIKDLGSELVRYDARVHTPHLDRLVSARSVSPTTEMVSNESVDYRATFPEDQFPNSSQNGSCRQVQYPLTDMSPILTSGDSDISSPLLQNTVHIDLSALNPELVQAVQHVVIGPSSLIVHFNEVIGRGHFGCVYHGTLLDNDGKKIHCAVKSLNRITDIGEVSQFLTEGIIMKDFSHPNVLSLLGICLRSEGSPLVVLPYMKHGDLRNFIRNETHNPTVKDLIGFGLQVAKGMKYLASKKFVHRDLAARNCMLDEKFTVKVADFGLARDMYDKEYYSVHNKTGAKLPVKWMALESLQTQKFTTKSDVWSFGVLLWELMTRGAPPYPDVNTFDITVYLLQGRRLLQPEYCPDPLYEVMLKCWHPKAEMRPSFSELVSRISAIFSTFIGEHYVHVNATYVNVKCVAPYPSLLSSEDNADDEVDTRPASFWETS

SMILES	IC50 ([1]; protocol of Example D-2) [nM]	IC50 [2] [nM]	IC50 [3] [nM]	IC50 ([4]; protocol of Example C-2) [nM]	IC50 ([5]; protocol of Example B-2) [nM]	IC50 [1, 6] [nM]	IC50 [4, 7] [nM]	IC50 [5, 8] [nM]
CNc1nc2c(Oc3ccc(NC(=O)c4cn(C(C)C)c(C)c(-c5ccc(F)cc5)c4=O)cc3F)ccnc2cc1OC [Compound 582, N-[3-Fluoro-4-[[7-methoxy-6-(methylamino)-1,5-naphthyridin-4-yl]oxy]phenyl]-5-(4-fluorophenyl)-6-methyl-4-oxo-1-propan-2-ylpyridine-3-carboxamide]	< 100	< 100	100 to 300	< 100	< 100	–	–	–
COc1cc2c(Oc3ccc(NC(=O)c4cn(C5CC5)c(C)c(-c5ccc(F)cc5)c4=O)cc3F)ccnc2cn1 [Compound 640, 1-cyclopropyl-N-[3-fluoro-4-[(6-methoxy-1,7-naphthyridin-4-yl)oxy]phenyl]-5-(4-fluorophenyl)-6-methyl-4-oxopyridine-3-carboxamide]	< 100	< 100	> 300	< 100	> 300	–	–	–
Cc1ncc(C(=O)Nc2ccc(Oc3ccnc4cnc(Cl)cc34)c(F)c2)c(O)c1-c1ccc(F)cc1 [Compound 641, N-[4-[(6-chloro-1,7-naphthyridin-4-yl)oxy]-3-fluorophenyl]-5-(4-fluorophenyl)-4-hydroxy-6-methylpyridine-3-carboxamide]	100 to 300	< 100	< 100	< 100	> 300	–	–	–
COc1cc2nccc(Oc3ccc(NC(=O)c4c(C)nc(C)c(-c5ccc(F)cc5)c4O)cc3)c2nc1OC [Compound 173, N-[4-[(6,7-Dimethoxy-1,5-naphthyridin-4-yl)oxy]phenyl]-5-(4-fluorophenyl)-4-hydroxy-2,6-dimethylpyridine-3-carboxamide]	–	< 100	< 100	–	–	< 100	< 100	< 100
COc1ccc2nccc(Oc3ccc(NC(=O)c4cnc(C)c(-c5ccc(F)cc5)c4O)cc3F)c2n1 [Compound 172, N-[3-Fluoro-4-[(6-methoxy-1,5-naphthyridin-4-yl)oxy]phenyl]-5-(4-fluorophenyl)-4-hydroxy-6-methylpyridine-3-carboxamide]	–	< 100	< 100	–	–	< 100	< 100	100 to 300
COc1cnc2c(Oc3ccc(NC(=O)c4cnc(C)c(-c5ccc(F)cc5C)c4O)cc3F)ccnc2c1 [Compound 175, N-[3-Fluoro-4-[(7-methoxy-1,5-naphthyridin-4-yl)oxy]phenyl]-5-(4-fluoro-2-methylphenyl)-4-hydroxy-6-methylpyridine-3-carboxamide]	–	< 100	< 100	–	–	< 100	< 100	100 to 300
COc1cc2nccc(Oc3ccc(NC(=O)c4cn(-c5cccnc5)cc(-c5ccc(F)cc5)c4=O)cc3F)c2nc1OC [Compound 125, N-[4-[(6,7-Dimethoxy-1,5-naphthyridin-4-yl)oxy]-3-fluorophenyl]-5-(4-fluorophenyl)-4-oxo-1-pyridin-3-ylpyridine-3-carboxamide]	–	< 100	> 300	–	–	< 100	< 100	> 300

Continued, values first:

IC50 ([1]; protocol of Example D-2) [nM]	IC50 [2] [nM]	IC50 [3] [nM]	IC50 ([4]; protocol of Example C-2) [nM]	IC50 ([5]; protocol of Example B-2) [nM]	IC50 [1, 6] [nM]	IC50 [4, 7] [nM]	IC50 [5, 8] [nM]	SMILES
100 to 300	< 100	< 100	< 100	100 to 300	–	–	–	Cc1nc(C)c(-c2ccc(F)cc2)c(O)c1C(=O)Nc1ccc(Oc2ccnc3cc(C(C)C)cnc23)c(F)c1 [Compound 595, 5-(4-Fluorophenyl)-N-[3-fluoro-4-[(7-propan-2-yl-1,5-naphthyridin-4-yl)oxy]phenyl]-4-hydroxy-2,6-dimethylpyridine-3-carboxamide]
< 100	< 100	< 100	< 100	100 to 300	–	–	–	COc1cc2c(Oc3ccc(NC(=O)c4cnc(C)c(-c5ccc(F)cc5)c4O)cc3)ccnc2cn1 [Compound 644, 5-(4-fluorophenyl)-4-hydroxy-N-[4-[(6-methoxy-1,7-naphthyridin-4-yl)oxy]phenyl]-6-methylpyridine-3-carboxamide]
< 100	< 100	< 100	< 100	> 300	–	–	–	Cc1ncc(C(=O)Nc2ccc(Oc3ccnc4cc(C(C)C)cnc34)c(F)c2)c(O)c1-c1ccc(F)cc1 [Compound 596, 5-(4-Fluorophenyl)-N-[3-fluoro-4-[(7-propan-2-yl-1,5-naphthyridin-4-yl)oxy]phenyl]-4-hydroxy-6-methylpyridine-3-carboxamide]
< 100	< 100	> 300	< 100	> 300	–	–	–	CNc1c(-c2ccc(F)cc2)c(=O)c(C(=O)Nc2ccc(Oc3ccnc4cc(OC)cnc34)c(F)c2)cn1C [Compound 585, N-[3-Fluoro-4-[(7-methoxy-1,5-naphthyridin-4-yl)oxy]phenyl]-5-(4-fluorophenyl)-1-methyl-6-(methylamino)-4-oxopyridine-3-carboxamide]
–	< 100	> 300	–	–	< 100	< 100	> 300	COc1nc2c(Oc3ccc(NC(=O)c4cn(C(C)C)cc(-c5ccc(F)cc5)c4=O)cc3F)ccnc2cc1Br [Compound 131, N-[4-[(7-Bromo-6-methoxy-1,5-naphthyridin-4-yl)oxy]-3-fluorophenyl]-5-(4-fluorophenyl)-4-oxo-1-propan-2-ylpyridine-3-carboxamide]
–	< 100	> 300	–	–	< 100	< 100	> 300	CCn1cc(C(=O)Nc2ccc(Oc3ccnc4cc(OC)cnc34)cc2)c(=O)c(-c2ccc(F)cc2)c1C [Compound 163, 1-Ethyl-5-(4-fluorophenyl)-N-[4-[(7-methoxy-1,5-naphthyridin-4-yl)oxy]phenyl]-6-methyl-4-oxopyridine-3-carboxamide]
–	< 100	> 300	–	–	< 100	< 100	> 300	COc1cnc2c(Oc3ccc(NC(=O)c4cn(C(C)(C)C)c(C)c(-c5ccc(F)cc5)c4=O)cc3F)ccnc2c1 [Compound 166, 1-tert-Butyl-N-[3-fluoro-4-[(7-methoxy-1,5-naphthyridin-4-yl)oxy]phenyl]-5-(4-fluorophenyl)-6-methyl-4-oxopyridine-3-carboxamide]
–	< 100	> 300	–	–	< 100	< 100	> 300	COc1cnc2c(Oc3ccc(NC(=O)c4cn(C)c(C)c(-c5ccc(F)cc5)c4=O)cc3F)ccnc2c1 [Compound 156, N-[3-Fluoro-4-[(7-methoxy-1,5-naphthyridin-4-yl)oxy]phenyl]-5-(4-fluorophenyl)-1,6-dimethyl-4-oxopyridine-3-carboxamide]
< 100	< 100	< 100	< 100	< 100	–	–	–	CCc1nc2c(Oc3ccc(NC(=O)c4cnc(C)c(-c5ccc(F)cc5)c4O)cc3F)ccnc2cc1OC [Compound 589, N-[4-[(6-Ethyl-7-methoxy-1,5-naphthyridin-4-yl)oxy]-3-fluorophenyl]-5-(4-fluorophenyl)-4-hydroxy-6-methylpyridine-3-carboxamide]
–	< 100	< 100	–	–	< 100	< 100	< 100	COc1cnc2c(Oc3ccc(NC(=O)c4cncc(-c5ccc(F)cc5)c4O)cc3F)ccnc2c1 [Compound 120, N-[3-Fluoro-4-[(7-methoxy-1,5-naphthyridin-4-yl)oxy]phenyl]-5-(4-fluorophenyl)-4-hydroxypyridine-3-carboxamide]
